Assay results reported in article PMC8940841, “A metabolically stable PET tracer for imaging synaptic vesicle protein 2A: synthesis and preclinical characterization of [^18F]SDM-16” (European Journal of Nuclear Medicine and Molecular Imaging, 2021).
Like-named read-outs stand apart in the source and are kept apart here.

How the values were obtained:
[1] = Plasma free fraction (fp) by ultrafiltration; format: in vitro ADME, rhesus monkey; conditions: monkey, plasma (separated from spiked whole blood)
[2] = Plasma radiometabolite analysis during PET scans; format: in vivo, rhesus monkeys
Experimental: Arterial blood samples were collected during the PET scans to measure the radioactivity in plasma for generation of the metabolite-corrected arterial plasma input function. Plasma radiometabolite analysis was performed using the column-switching method, following a published protocol. Briefly, arterial blood samples were collected at 3-, 8-, 15-, 30-, 60-, 90-, 120-, and 180-min post-injection (p. i.), treated with urea (8 M), filtered, and injected onto a self-packed short column (4.6 × 19 mm) eluting with 1% MeCN in water at a flow rate of 2 mL/min. The sample was then back flushed onto a Gemini-NX column (5 μm, 4.6 mm × 250 mm) eluting with 40% MeCN/60% 0.1 M ammonium formate (pH 6.4) at a flow rate of 1.2 mL/min. The eluent was fraction-collected using an automated spectrum chromatography CF-1 fraction collector. Activity in the whole blood, plasma, filtrated plasma-urea mix, filters, and HPLC fractions were counted with automatic gamma well-counter (Wizard 2, PerkinElmer). The sample recovery rate, extraction efficiency, and HPLC fraction recovery were monitored. The unmetabolized [^18F]SDM-16 parent fraction was determined as the ratio of the sum of radioactivity in fractions containing the parent compound to the total amount of radioactivity collected and fitted with inverted Gamma4 approaches.
[^18F]SDM-16 had higher metabolite-corrected plasma SUV than the other SV2A radiotracers, indicating slower plasma clearance and higher metabolic stability (Fig. 2a). Whole-blood and plasma-input functions were highly consistent between the two animals, with a stable plasma to whole-blood ratio of 0.93 ± 0.13 over the entire 180-min acquisition period (Fig. S1).

[3] = LEV blocking and displacement PET scans, Lassen plot; format: in vivo, rhesus monkeys (Macaca mulatta); conditions: male, rhesus monkey, intravenous
From the text: (§1) Four monkeys were studied.
(§2) To examine the in vivo binding specificity, SV2A occupancy, and the extent of nonspecific binding in the monkey brain, we performed the Lassen plot analysis using data from the two baseline scans and one blocking scan in the same monkey.

[4] = Free base fraction in plasma by modified Henderson-Hasselbalch equation (Eq. 1); conditions: Eq. 1, plasma pH 7.4
[5] = target: SV2A (Macaca mulatta, UniProt H9EQH8); experiment: LEV blocking and displacement PET scans, Lassen plot; format: in vivo, rhesus monkeys (Macaca mulatta); design: from tissue; host or cells: brain of living rhesus monkeys (in vivo PET); conditions: for VT (blocking): LEV 30 mg/kg i.v.
From the text: as §1, §2

SV2A, sequence (H9EQH8 1-742): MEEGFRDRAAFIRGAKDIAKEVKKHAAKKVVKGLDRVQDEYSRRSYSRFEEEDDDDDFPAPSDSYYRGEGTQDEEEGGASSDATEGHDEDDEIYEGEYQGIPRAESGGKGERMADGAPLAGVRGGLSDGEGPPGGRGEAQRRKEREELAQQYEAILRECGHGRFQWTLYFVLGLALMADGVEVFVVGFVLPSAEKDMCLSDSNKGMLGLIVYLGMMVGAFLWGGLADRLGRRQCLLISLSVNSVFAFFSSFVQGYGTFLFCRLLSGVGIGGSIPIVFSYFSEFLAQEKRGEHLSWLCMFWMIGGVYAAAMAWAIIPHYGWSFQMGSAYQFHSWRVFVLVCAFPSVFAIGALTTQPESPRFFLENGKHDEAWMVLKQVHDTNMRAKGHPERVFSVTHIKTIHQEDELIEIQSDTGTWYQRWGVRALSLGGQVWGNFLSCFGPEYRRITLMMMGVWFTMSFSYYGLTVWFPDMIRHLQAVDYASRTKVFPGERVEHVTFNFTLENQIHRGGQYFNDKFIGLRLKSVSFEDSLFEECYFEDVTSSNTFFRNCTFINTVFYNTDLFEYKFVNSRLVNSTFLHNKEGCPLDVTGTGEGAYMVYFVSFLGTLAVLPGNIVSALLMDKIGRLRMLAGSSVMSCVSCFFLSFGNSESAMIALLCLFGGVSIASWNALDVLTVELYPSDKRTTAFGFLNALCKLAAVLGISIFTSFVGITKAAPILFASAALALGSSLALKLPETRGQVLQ

fraction unbound at 5 min [1]: 0.69
parent fraction in plasma ([2]; 30 min p.i.): 89 ± 5%
parent fraction in plasma ([2]; 120 min p.i.): 80 ± 7%
plasma to whole-blood ratio ([2]; over 180-min acquisition): 0.93 ± 0.13
Kp ([3]; brain (caudate), Caudate, LEV 30 mg/kg i.v., read-out: VT (blocking)): 7.7
Kp ([3]; brain (putamen), Putamen, LEV 30 mg/kg i.v., read-out: VT (blocking)): 8.8
Kp ([3]; brain (thalamus), Thalamus, LEV 30 mg/kg i.v., read-out: VT (blocking)): 8.2
Kp ([3]; brain, Lassen plot, read-out: VND): 2.54
fraction present in plasma as free base [4]: 30%
VT (blocking) ([5]; Amygdala): 4.5 mL/cm^3
VT (blocking) ([5]; Brainstem): 4.5 mL/cm^3
VT (blocking) ([5]; Centrum semiovale): 3.4 mL/cm^3
VT (blocking) ([5]; Cerebellum): 6.6 mL/cm^3
VT (blocking) ([5]; Cingulate cortex): 10.4 mL/cm^3
VT (blocking) ([5]; Frontal cortex): 9.5 mL/cm^3
VT (blocking) ([5]; Globus pallidus): 6.9 mL/cm^3
VT (blocking) ([5]; Hippocampus): 5.9 mL/cm^3
VT (blocking) ([5]; Insular cortex): 10.3 mL/cm^3
reduction of tracer uptake in LEV displacement ([5]; LEV 30 mg/kg i.v. at 120 min p.i., averaged from 5 brain regions, SUV at 4 h p.i. vs 180 min baseline): 58 ± 8%
VT (blocking) ([5]; Nucleus accumbens): 10.5 mL/cm^3
VT (blocking) ([5]; Occipital cortex): 8.3 mL/cm^3
VT (blocking) ([5]; Temporal cortex): 8.6 mL/cm^3
BPND in the LEV blocking scan ([5]; cingulate cortex and nucleus accumbens, 79% SV2A occupied by LEV): up to 2.11
reduction of tracer uptake in gray matter by pre-blocking ([5]; preinjected LEV 30 mg/kg i.v., normalized terminal SUV): 57 ± 10%
Compound: Cc1nccn1CN1C[C@@H](c2cc(F)cc([18F])c2)CC1=O [[^18F]SDM-16, (R)-4-(3-fluoro-5-(fluoro-^18F)phenyl)-1-((2-methyl-1H-imidazol-1-yl)methyl)pyrrolidin-2-one]
